Patent US20040219097A1, “Composition useful for the diagnosis, imaging and treatment of tumors” (priority 2003, published 2004)

Assays:
JJ5 Breast Cancer cells [1] = experiment: Cytotoxicity (colony-forming) assay against JJ5 breast cancer cells; format: cell-based, human; conditions: 14 days
Procedure: The number of cells seeded was varied from 3×10^4 to 3×10^6cells to obtain approximately 400 viable colonies/dish taking into account the plating efficiency and the expected level of cytotoxicity. Control dishes contained JJ5 breast cancer cells which were incubated with normal saline. Growth medium was added and the cells were cultured at 37° C./5% CO^2 for 14 days. The growth medium was removed and the colonies were stained with methylene blue (1% in a 1:1 mixture of ethanol and water) then washed twice. The number of colonies per dish was counted using a manual colony counter (Manostat Corp). The plating efficiency was calculated by dividing the number of colonies observed by the number of cells seeded in each dish.

JJ5 Breast Cancer cells [2] = experiment: Growth inhibition assay against JJ5 breast cancer cells; format: cell-based, human; conditions: 4 days culture
Procedure: Growth medium was added and the cells were cultured at 37° C./5% CO^2 for 4 days. The cells were then recovered by trypsinization and counted in a hemocytometer. Control dishes contained cells cultured in growth medium containing ^111In-DTPA or growth medium alone.

JJ5 Breast Cancer cells [3] = experiment: Binding of EGF-^111In-labeled transferrin compound to breast cancer cells (radioligand binding, kinetics, retention); parameters: species or system human
Procedure: For the normal breast cell line HBL-100, 8000 EGFR/cell has been reported. The expression of EGFR in breast cancer cell lines has a reported range of 800 EGFR/cell for MCF-7 cells to 10^6 EGFR/cell for MDA-MB-468 cells. […] Utilizing the Auger electron emitter ^111In was used in the initial experiments to illustrate the utility of the invention using EGF-^111In-labeled transferrin compounds. The EGF-^111In-labeled transferrin (0.25-80 ng) was incubated with 1.5×10^6 cells/dish JJ5 Breast Cancer (prepared from BCBM JJ5) cells in 1 mL of 0.1% human serum albumin in 35 mm multiwell culture dishes at 37° C. for 30 minutes. The cells were transferred to a centrifuge tube and centrifuged. The cell pellet was separated from the supernatant and counted in a g-scintillation counter to determine bound (B) and free (F) radioactivity. Non-specific binding was determined by conducting the assay in 100 nM hEGF. […] Internalized fraction was measured by determining the proportion of radioactivity which could not be displaced from the cell surface by 100 nM hEGF. Cell-associated binding (surface-binding and intracellular accumulation) was expressed as a percentage of medium radioactivity bound per mg of cell study protein.

With `[In+3].[O-]c1cccc2cccnc12.[O-]c1cccc2cccnc12.[O-]c1cccc2cccnc12` [^111In-oxine, reference compound] the cell killing (JJ5 Breast Cancer cells [1]; <6 pCi/cell) was “greater than 99%” and the “growth inhibition of the JJ5 cells compared to the medium control” value (JJ5 Breast Cancer cells [2]; 3.5 pCi/cell) was 91%.

For “EGF-^111In-labeled transferrin compound: human EGF linked to ^111In-labeled human transferrin”, the “reduction in cell survival for JJ5 cells” value (JJ5 Breast Cancer cells [1]; 8 pCi/cell) was 99%, the “internalization by cancer cells, in words” value (JJ5 Breast Cancer cells [3]) was “rapidly internalized” and the “binding by the breast cancer cells (kinetics, in words)” value (JJ5 Breast Cancer cells [3]; JJ5 cells, 37° C.) was “rapidly bound”. The “retained by the breast cancer cells” value (JJ5 Breast Cancer cells [3]; JJ5 cells, 37° C.) was “at least 24 hours”, the “affinity constant for binding to JJ5 cells” value (JJ5 Breast Cancer cells [3]; JJ5 cells, 37° C., 30 minutes) was 8e+08 L/mol and the “growth inhibition of the JJ5 cells compared to the medium control” value (JJ5 Breast Cancer cells [2]; 3.4 pCi/cell) was 83%.
